SMILES strings stand for the structures. Like-named read-outs stand apart in the source and are kept apart here.

The target of one data set is hKOR (Homo sapiens, UniProt P41145). The experiment in a line: Radioligand binding assay (Eurofins Cerep), [3H]U69,593 displacement.
The target in another data set is hDOR (Homo sapiens, UniProt P41143). As to the kind of experiment: Radioligand binding assay (Eurofins Cerep), [3H]DADLE displacement.
The target of the next data set is T1, α2A adrenergic receptor (Homo sapiens, UniProt P08913).
T1 construct: Eurofins Cerep (contract screening)
T1 sequence (P08913 1-465): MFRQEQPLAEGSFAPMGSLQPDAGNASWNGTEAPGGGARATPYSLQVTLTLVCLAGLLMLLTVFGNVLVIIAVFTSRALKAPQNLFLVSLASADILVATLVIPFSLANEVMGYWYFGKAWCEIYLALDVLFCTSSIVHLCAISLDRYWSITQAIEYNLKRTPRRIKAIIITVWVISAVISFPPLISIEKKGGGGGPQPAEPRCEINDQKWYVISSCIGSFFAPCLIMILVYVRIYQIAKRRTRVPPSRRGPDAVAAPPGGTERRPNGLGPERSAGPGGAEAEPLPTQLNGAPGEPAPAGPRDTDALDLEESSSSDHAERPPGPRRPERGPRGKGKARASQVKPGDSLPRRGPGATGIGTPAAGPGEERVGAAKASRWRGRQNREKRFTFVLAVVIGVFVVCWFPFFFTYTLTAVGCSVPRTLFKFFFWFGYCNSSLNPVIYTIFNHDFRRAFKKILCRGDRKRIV
The experiment in a line: Radioligand binding assay (Eurofins Cerep), [3H]RX 821002 displacement.

The next data set addresses T2, α2C adrenergic receptor (Homo sapiens, UniProt P18825).
T2 construct: Eurofins Cerep (contract screening)
T2 sequence (P18825 1-462): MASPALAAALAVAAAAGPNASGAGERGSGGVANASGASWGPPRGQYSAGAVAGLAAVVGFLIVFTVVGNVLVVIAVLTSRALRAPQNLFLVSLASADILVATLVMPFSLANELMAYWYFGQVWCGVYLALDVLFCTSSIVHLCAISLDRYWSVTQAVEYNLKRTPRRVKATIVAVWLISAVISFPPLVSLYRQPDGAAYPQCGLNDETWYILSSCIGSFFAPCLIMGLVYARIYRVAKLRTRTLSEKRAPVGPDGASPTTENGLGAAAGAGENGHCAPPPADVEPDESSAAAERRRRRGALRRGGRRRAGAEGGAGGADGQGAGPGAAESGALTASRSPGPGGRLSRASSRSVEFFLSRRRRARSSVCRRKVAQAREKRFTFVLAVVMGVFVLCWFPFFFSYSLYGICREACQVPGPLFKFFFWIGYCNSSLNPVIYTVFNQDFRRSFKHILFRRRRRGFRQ
The description is as above.

Data set [1] can be described thus: Metabolic stability in rat liver microsomes. Particulars: in vitro intrinsic clearance in RLM scaled to whole organ (rat). The format is in vitro ADME. As for the experimental part:
In vitro metabolic stability of each compound was determined using rat liver microsomes in triplicate. Verapamil was used as a positive control to check the activity of the microsomes. The incubation mixtures consisted of rat liver microsomes (1 mg microsomal protein/ml), substrate (1 μM), and reduced NADPH (1 mM) in a total volume of 0.4 ml potassium phosphate buffer (50 mM, pH 7.4). Reactions were initiated with the addition of NADPH and kept in an incubator shaker at 37° C. Aliquots of 25 μl were withdrawn at 0, 5, 10, 15, 30, and 60 min and mixed with 125 μl of acetonitrile with formic acid (0.1% v/v) containing phenacetin (50 ng/ml; internal standard) for the termination of the reaction. The samples were then vortex mixed and filtered through a […] 96-well membrane filtration plate under centrifugation at speed of 2000×g for 5 min at 4° C. The filtrates were subjected to UPLC-mass spectrometry (MS/MS) analysis.
The intrinsic clearance of the compounds was calculated using a half-life employing the ‘substrate depletion’ approach. The apparent half-life was calculated from the pseudo-first-order rate constants obtained by linear regression of log (concentration) and time plots. The in vitro intrinsic clearance of IFN was estimated using the formula: […]
Where k is the slope of the line obtained by plotting the natural logarithmic of the percentage of parent remaining versus time and V is the volume of incubation.
The in vitro intrinsic clearance was scaled to whole-organ (hepatic) in vivo intrinsic CL (CLint,H) using the scaling factors available in the literature using equation (Mahmood I. Application of allometric principles for the prediction of pharmacokinetics in human and veterinary drug development. Advanced drug delivery reviews, 2007, 59(11), 1177-1192)
MPPGL represents the microsomal protein per gram of Sprague Dawley rat liver (45 mg/g) and liver weight per kg body weight was 40 g/kg.

Data set [2] concerns the target T3, hMOR (Homo sapiens, UniProt P35372). As to the kind of experiment: cell-based. Details: expressed in transfected cells. As to conditions: CHO.
The target of data set [3] is T3, hMOR. The experiment in a line: Radioligand binding assay (Eurofins Cerep), [3H]DAMGO displacement. Particulars: read-out: MOR Ki ± SEM.
In data set [4] the target is T3, hMOR. As to the kind of experiment: Cyclic adenosine 3′,5′-monophosphate (cAMP) assay in hMOR-CHO cells. The format is cell-based. Particulars: N=1, control agonist DAMGO.
Setting [5] is: Table A1, data summary #1, read-out: KOR Ki ± SEM.
[6] abbreviates: Table A4, data summary #2, read-out: KOR Ki ± SEM.

Chain of hDOR (P41143 whole entry): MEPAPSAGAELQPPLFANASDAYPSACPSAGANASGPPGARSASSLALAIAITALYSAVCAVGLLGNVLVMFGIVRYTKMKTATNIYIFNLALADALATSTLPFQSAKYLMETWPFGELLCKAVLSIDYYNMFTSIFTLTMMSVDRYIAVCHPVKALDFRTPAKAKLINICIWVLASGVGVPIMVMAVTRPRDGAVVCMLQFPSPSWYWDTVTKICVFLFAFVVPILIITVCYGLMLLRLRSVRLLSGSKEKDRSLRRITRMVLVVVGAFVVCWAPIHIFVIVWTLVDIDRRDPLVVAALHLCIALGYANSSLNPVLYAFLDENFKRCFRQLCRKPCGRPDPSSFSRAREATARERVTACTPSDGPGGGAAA
T3 sequence (P35372 whole entry): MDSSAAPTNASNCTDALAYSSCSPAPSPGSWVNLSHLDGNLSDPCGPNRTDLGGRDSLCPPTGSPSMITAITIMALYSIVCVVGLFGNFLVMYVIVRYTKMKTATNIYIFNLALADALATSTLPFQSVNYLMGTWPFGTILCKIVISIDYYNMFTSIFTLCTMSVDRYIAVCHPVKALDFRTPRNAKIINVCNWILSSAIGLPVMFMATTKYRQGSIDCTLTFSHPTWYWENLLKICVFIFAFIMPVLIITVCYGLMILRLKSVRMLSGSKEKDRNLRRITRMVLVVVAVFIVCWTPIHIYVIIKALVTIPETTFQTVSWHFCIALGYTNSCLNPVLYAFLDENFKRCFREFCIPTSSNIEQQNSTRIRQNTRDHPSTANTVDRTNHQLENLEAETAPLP
Chain of hKOR (P41145 whole entry): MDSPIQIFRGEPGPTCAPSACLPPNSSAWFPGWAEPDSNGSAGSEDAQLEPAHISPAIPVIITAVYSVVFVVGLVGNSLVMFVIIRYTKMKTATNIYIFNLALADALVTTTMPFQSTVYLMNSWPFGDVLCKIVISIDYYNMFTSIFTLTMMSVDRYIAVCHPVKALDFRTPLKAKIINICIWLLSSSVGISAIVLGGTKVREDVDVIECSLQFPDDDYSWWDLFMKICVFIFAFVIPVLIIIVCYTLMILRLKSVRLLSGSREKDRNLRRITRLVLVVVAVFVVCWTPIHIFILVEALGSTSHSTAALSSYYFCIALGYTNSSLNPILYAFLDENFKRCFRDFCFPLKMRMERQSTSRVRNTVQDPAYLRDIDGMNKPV

By Ki is commonly meant the dissociation constant of the complex between target and ligand, obtained from inhibition or displacement. A word on the Emax: it is the greatest response seen or fitted, relative to the assay's reference. As for `CC[C@@H]1CN2CCc3c([nH]c4cccc(OC)c34)[C@@H]2C[C@@H]1/C(=C\OC)C(=O)OC` [Mitragynine, mitragynine, reference compound], the Ki came to 1530 ± 485 nM on hKOR (Table 3-1, 3 independent experiments, read-out: Ki (nM ± SEM) KOR); 1530 nM at hKOR (setting [5]); 264 nM at hKOR (setting [6]); 1530 ± 143 nM on hKOR (Table B1′, read-out: KOR Ki ± SEM); 6800 ± 721 nM at hDOR (Table 3-1, 3 independent experiments, read-out: Ki (nM ± SEM) DOR); 6800 nM on hDOR (Table A1, data summary #1, read-out: DOR Ki ± SEM). For the same compound, the Ki on hDOR (Table A4, data summary #2, read-out: DOR Ki ± SEM) amounted to 1950 nM; on hDOR (Table B1′, read-out: DOR Ki ± SEM), 6800 ± 721 nM; on α2A adrenergic receptor (Table 3-1, 3 independent experiments, read-out: Ki (nM ± SEM) a2A-AR), 4090 ± 273 nM; at α2A adrenergic receptor (Table A1, data summary #1, read-out: Alpha2A Ki ± SEM), 4090 nM; at α2A adrenergic receptor (Table A4, data summary #2, read-out: Alpha2A Ki ± SEM), 1350 nM; at α2A adrenergic receptor (Table B1, mean ± SEM, 3 independent experiments, read-out: Alpha2A Ki ± SEM) it was 709 ± 91.2 nM. Further, the Ki at α2A adrenergic receptor (Table B1′, read-out: alpha2A Ki ± SEM) worked out at 4090 ± 273 nM; on α2A adrenergic receptor (Table B2, mean ± SEM, 3 independent experiments, read-out: Alpha2A Ki ± SEM), 709 ± 91.2 nM; on α2C adrenergic receptor (Alpha2C Ki ± SEM (nM), Table A1, data summary #1), 4040 nM; on α2C adrenergic receptor (Alpha2C Ki ± SEM (nM), Table B2, mean ± SEM, 3 independent experiments), 4090 ± 372 nM; at α2C adrenergic receptor (Ki (nM ± SEM) a2C-AR, Table 3-1, 3 independent experiments) it was 4040 ± 417 nM. The “Whole liver clearance, CL int, H” value in data set [1] stood at 35.5 mL/min/kg. Also, the Emax at hMOR [2] (read-out: MOR Emax ± SEM (% DAMGO), Table A1, data summary #1) came out at 3.97%; at hMOR [2] (read-out: MOR Emax ± SEM (%)) it was 3.97 ± 9.5%.
For `CC[C@@H]1CN2CCc3c([nH]c4cccc(OC)c34)[C@@H]2C[C@@H]1/C(=C\OC)C(=O)Nc1ccccc1` [SUSM-528, (E)-2-((2S,3S,12bS)-3-ethyl-8-methoxy-1,2,3,4,6,7,12,12b-octahydroindolo[2,3-a]quinolizin-2-yl)-3-methoxy-N-phenylacrylamide], the Ki on hMOR [3] (Table A1, data summary #1) is 7.77 ± 3.62 µM; at hMOR [3] (Table A4, data summary #2), 0.498 ± 0.118 µM; at hKOR (setting [5]), above 10000 nM; at hKOR (setting [6]), 6510 ± 4660 nM; on hDOR (DOR Ki ± SEM (nM), Table A4, data summary #2), above 10000 nM; on α2A adrenergic receptor (Alpha2A Ki ± SEM (nM), Table A1, data summary #1) it was 6580 ± 2320 nM. The same compound displayed an inhibition constant (Ki) at α2A adrenergic receptor (Alpha2A Ki ± SEM (nM), Table A4, data summary #2) of 6580 ± 2320 nM. Moreover, the “functional activity in cAMP assay” value on hMOR [4] was “agonist, however its potency was less than DAMGO”; on hMOR [4] (listed as SUSM 528) it was “agonist, but less potent than DAMGO”.

(Values after patent publication US20260234147A1 (priority 2023, published 2026).)
